“And” between values parts separate entries of the source, which are not always exact repeats. Identical values can stand only once.
Conditions: Liquid, Vibrating tube method

CCCCCCC(=O)OCC(COC(=O)CCCCCC)(COC(=O)CCCCCC)COC(=O)CCCCCC [pentaerythritol tetraheptanoate]
Conditions	mass density
283.15 K, 2785.2 kPa	987.5 kg/m3
283.15 K, 4763 kPa	988.5 kg/m3
283.15 K, 4768.7 kPa	988.7 kg/m3
283.15 K, 5143.5 kPa	988.8 kg/m3
283.15 K, 5150.3 kPa	988.9 kg/m3
283.15 K, 5157.6 kPa	988.7 kg/m3
283.15 K, 5164.1 kPa	988.8 kg/m3
283.15 K, 5170.9 kPa	988.9 kg/m3
283.15 K, 5178.5 kPa	988.9 kg/m3
283.15 K, 5185.2 kPa	988.8 kg/m3
283.15 K, 5558.2 kPa	989.1 kg/m3
283.15 K, 5573.4 kPa	989.1 kg/m3
283.15 K, 5748.5 kPa	989.3 kg/m3
283.15 K, 5758 kPa	989.2 kg/m3
283.15 K, 5766.1 kPa	989.3 kg/m3
283.15 K, 9627.4 kPa	991.5 kg/m3
283.15 K, 9754 kPa	991.6 kg/m3
283.15 K, 9827.4 kPa	991.6 kg/m3
283.15 K, 15376 kPa	994.5 kg/m3
283.15 K, 15402 kPa	994.5 kg/m3
283.15 K, 15424 kPa	994.5 kg/m3
283.15 K, 15447 kPa	994.5 kg/m3
283.15 K, 15473 kPa	994.5 kg/m3
283.15 K, 15496 kPa	994.5 kg/m3
283.15 K, 15518 kPa	994.4 kg/m3
283.15 K, 15545 kPa	994.6 kg/m3
283.15 K, 16561 kPa	995.2 kg/m3
283.15 K, 16643 kPa	995.1 kg/m3
283.15 K, 16700 kPa	995.2 kg/m3
283.15 K, 17302 kPa	995.5 kg/m3
283.15 K, 17330 kPa	995.5 kg/m3
283.15 K, 17392 kPa	995.5 kg/m3
283.15 K, 17420 kPa	995.6 kg/m3
283.15 K, 19724 kPa	996.7 kg/m3
283.15 K, 24690 kPa	999.4 kg/m3
283.15 K, 24805 kPa	999.3 kg/m3
283.15 K, 25965 kPa	999.9 kg/m3
283.15 K, 26012 kPa	1000.1 kg/m3
283.15 K, 26052 kPa	1000.1 kg/m3
283.15 K, 26093 kPa	1000.1 kg/m3
283.15 K, 26133 kPa	1000.1 kg/m3
283.15 K, 26183 kPa	1000.1 kg/m3
283.15 K, 26224 kPa	1000.1 kg/m3
283.15 K, 26317 kPa	1000.1 kg/m3
283.15 K, 26361 kPa	1000.1 kg/m3
283.15 K, 26458 kPa	1000.2 kg/m3
283.15 K, 26749 kPa	1000.4 kg/m3
283.15 K, 26807 kPa	1000.4 kg/m3
283.15 K, 26833 kPa	1000.4 kg/m3
283.15 K, 26860 kPa	1000.5 kg/m3
283.15 K, 26892 kPa	1000.5 kg/m3
283.15 K, 26918 kPa	1000.5 kg/m3
283.15 K, 26978 kPa	1000.5 kg/m3
283.15 K, 27117 kPa	1000.7 kg/m3
283.15 K, 27150 kPa	1000.5 kg/m3
283.15 K, 27176 kPa	1000.7 kg/m3
283.15 K, 27209 kPa	1000.6 kg/m3
283.15 K, 27237 kPa	1000.6 kg/m3
283.15 K, 27264 kPa	1000.6 kg/m3
283.15 K, 27324 kPa	1000.7 kg/m3
283.15 K, 27352 kPa	1000.7 kg/m3
283.15 K, 27599 kPa	1000.8 kg/m3
283.15 K, 27618 kPa	1000.8 kg/m3
283.15 K, 27642 kPa	1000.9 kg/m3
283.15 K, 27661 kPa	1000.8 kg/m3
283.15 K, 27681 kPa	1000.9 kg/m3
283.15 K, 27896 kPa	1001.1 kg/m3
283.15 K, 27916 kPa	1001.1 kg/m3
283.15 K, 27936 kPa	1000.9 kg/m3
283.15 K, 27956 kPa	1001 kg/m3
283.15 K, 28022 kPa	1001 kg/m3
283.15 K, 30230 kPa	1002.1 kg/m3
283.15 K, 33971 kPa	1003.9 kg/m3
283.15 K, 34009 kPa	1004.1 kg/m3
283.15 K, 34041 kPa	1003.9 kg/m3
283.15 K, 34067 kPa	1004 kg/m3
283.15 K, 34100 kPa	1004.1 kg/m3
283.15 K, 34146 kPa	1004.3 kg/m3
283.15 K, 34179 kPa	1004 kg/m3
283.15 K, 34214 kPa	1004.2 kg/m3
283.15 K, 34255 kPa	1004.1 kg/m3
283.15 K, 34291 kPa	1004.1 kg/m3
283.15 K, 34334 kPa	1004.2 kg/m3 and 1004.1 kg/m3
283.15 K, 34346 kPa	1004.1 kg/m3
283.15 K, 34372 kPa	1004.2 kg/m3
283.15 K, 34412 kPa	1004.3 kg/m3
283.15 K, 34450 kPa	1004.2 kg/m3
283.15 K, 34481 kPa	1004.2 kg/m3
283.15 K, 34492 kPa	1004.2 kg/m3
283.15 K, 34503 kPa	1004.4 kg/m3
283.15 K, 34516 kPa	1004.2 kg/m3
283.15 K, 34528 kPa	1004.3 kg/m3
283.15 K, 34542 kPa	1004.4 kg/m3
283.15 K, 34553 kPa	1004.4 kg/m3
283.15 K, 34565 kPa	1004.4 kg/m3
283.15 K, 34574 kPa	1004.3 kg/m3
283.15 K, 34579 kPa	1004.3 kg/m3
283.15 K, 34594 kPa	1004.5 kg/m3
283.15 K, 34601 kPa	1004.3 kg/m3
283.15 K, 34603 kPa	1004.2 kg/m3
283.15 K, 34606 kPa	1004.3 kg/m3
303.14 K, 99.6 kPa	970.8 kg/m3
303.14 K, 99.8 kPa	970.7 kg/m3 and 970.8 kg/m3 and 970.9 kg/m3
303.14 K, 99.9 kPa	970.8 kg/m3 and 970.9 kg/m3 and 970.7 kg/m3
303.14 K, 100.1 kPa	970.7 kg/m3 and 970.6 kg/m3
303.14 K, 100.3 kPa	970.7 kg/m3
303.14 K, 100.6 kPa	970.8 kg/m3
303.14 K, 101.7 kPa	970.7 kg/m3
303.14 K, 103.8 kPa	970.7 kg/m3
303.14 K, 107.4 kPa	970.8 kg/m3
303.14 K, 118.5 kPa	970.8 kg/m3
303.14 K, 136.8 kPa	970.7 kg/m3

Reference: the NIST ThermoML archive (doi:10.1021/je060271a)
